From patent US6054435A, “6-O-substituted macrolides having antibacterial activity” (priority 1999, dated 2000)
Converted amounts (≈) assume the structure as drawn.

How the values were obtained:
Assay in all cases: in vitro antibacterial activity (MIC), agar dilution
Assay type in all cases: cell-based
Candida albicans CCH 442 = details: organism code TT; BHI agar, 35-37° C., 20 to 24 hours; unit assumed
In short: (§1)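 BHI agar incorporation method; twelve compound concentrations. Streptococcus and other slow growers inoculated at 1:10, other strains at 1:100. Visual MIC read-out versus growth control.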

[1] = test system: Enterococcus faecium ATCC 8043; details: organism code II; BHI agar, 35-37° C., 20 to 24 hours; unit assumed
In short: as §1

Escherichia coli DC-2 = details: organism code SS; BHI agar, 35-37° C., 20 to 24 hours; unit assumed
In short: as §1

Escherichia coli JUHL = details: organism code QQ; BHI agar, 35-37° C., 20 to 24 hours; unit assumed
In short: as §1

Escherichia coli SS = details: organism code RR; BHI agar, 35-37° C., 20 to 24 hours; unit assumed
In short: as §1

[2] = test system: Haemophilis Influenzae DILL AMP R; details: organism code WW; BHI agar, 35-37° C., 20 to 24 hours; unit assumed
In short: as §1

[3] = test system: Micrococcus luteus ATCC 4698; details: organism code PP; BHI agar, 35-37° C., 20 to 24 hours; unit assumed
In short: (§2)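 Agar dilution in BHI agar, twelve successive compound dilutions. Inoculum 1:100, or 1:10 for slow-growing strains (e.g. Streptococcus), replicator-spotted. Read by eye; MIC = lowest concentration with no growth, slight haze or sparsely isolated colonies relative to growth control.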

[4] = test system: Micrococcus luteus ATCC 9341; details: organism code OO; BHI agar, 35-37° C., 20 to 24 hours; unit assumed
In short: as §2

[5] = test system: Mycobacterium smegmatis ATCC 114; details: organism code UU; BHI agar, 35-37° C., 20 to 24 hours; unit assumed
In short: as §1

[6] = test system: Nocardia Asteroides ATCC9970; details: organism code VV; BHI agar, 35-37° C., 20 to 24 hours; unit assumed
In short: as §1

[7] = test system: Staphylococcus aureus 1775; details: organism code GG; BHI agar, 35-37° C., 20 to 24 hours; unit assumed
In short: as §1

[8] = test system: Staphylococcus aureus A-5278; details: organism code CC; BHI agar, 35-37° C., 20 to 24 hours; unit assumed
In short: as §1

[9] = test system: Staphylococcus aureus A5177; details: organism code BB; BHI agar, 35-37° C., 20 to 24 hours; unit assumed
In short: as §1

[10] = test system: Staphylococcus aureus ATCC 6538P; details: organism code AA; BHI agar, 35-37° C., 20 to 24 hours; unit assumed
In short: as §1

[11] = test system: Staphylococcus aureus CMX 553; details: organism code FF; BHI agar, 35-37° C., 20 to 24 hours; unit assumed
In short: as §1

[12] = test system: Staphylococcus aureus CMX 642A; details: organism code DD; BHI agar, 35-37° C., 20 to 24 hours; unit assumed
In short: as §1

[13] = test system: Staphylococcus aureus NCTC10649M; details: organism code EE; BHI agar, 35-37° C., 20 to 24 hours; unit assumed
In short: as §1

[14] = test system: Staphylococcus epidermidis 3519; details: organism code HH; BHI agar, 35-37° C., 20 to 24 hours; unit assumed
In short: as §1

[15] = test system: Streptococcus Pneumonia 5649; details: organism code ZZA; BHI agar, 35-37° C., 20 to 24 hours; unit assumed
In short: as §1

[16] = test system: Streptococcus Pneumonia 5979; details: organism code ZZ; BHI agar, 35-37° C., 20 to 24 hours; unit assumed
In short: as §1

[17] = test system: Streptococcus Pneumonia ATCC6303; details: organism code XX; BHI agar, 35-37° C., 20 to 24 hours; unit assumed
In short: as §1

[18] = test system: Streptococcus Pneumonia GYR 1171; details: organism code YY; BHI agar, 35-37° C., 20 to 24 hours; unit assumed
In short: as §1

[19] = test system: Streptococcus agalactiae CMX 508; details: organism code KK; BHI agar, 35-37° C., 20 to 24 hours; unit assumed
In short: as §1

[20] = test system: Streptococcus bovis A-5169; details: organism code JJ; BHI agar, 35-37° C., 20 to 24 hours; unit assumed
In short: as §1

[21] = test system: Streptococcus pyogenes 930; details: organism code MM; BHI agar, 35-37° C., 20 to 24 hours; unit assumed
In short: as §1

[22] = test system: Streptococcus pyogenes EES61; details: organism code LL; BHI agar, 35-37° C., 20 to 24 hours; unit assumed
In short: as §1

[23] = test system: Streptococcus pyogenes PIU 2548; details: organism code NN; BHI agar, 35-37° C., 20 to 24 hours; unit assumed
In short: as §1

Row | SMILES | MIC (Candida albicans CCH 442) [µg/mL] | MIC [1] [µg/mL] | MIC (Escherichia coli DC-2) [µg/mL] | MIC (Escherichia coli JUHL) [µg/mL] | MIC (Escherichia coli SS) [µg/mL] | MIC [2] [µg/mL] | MIC [3] [µg/mL] | MIC [4] [µg/mL] | MIC [5] [µg/mL] | MIC [6] [µg/mL] | MIC [7] [µg/mL] | MIC [8] [µg/mL] | MIC [9] [µg/mL] | MIC [10] [µg/mL] | MIC [11] [µg/mL] | MIC [12] [µg/mL] | MIC [13] [µg/mL] | MIC [14] [µg/mL] | MIC [15] [µg/mL] | MIC [16] [µg/mL] | further results
1 | CC[C@H]1OC(=O)[C@H](C)C(=O)[C@H](C)[C@@H](O[C@@H]2O[C@H](C)C[C@H](N(C)C)[C@H]2O)[C@](C)(OCC#Cc2ccc(-c3cccc(NC(C)=O)c3)s2)C[C@@H](C)C(=O)[C@H](C)[C@H]2NC(=O)O[C@@]21C [Example 20] | > 100 | 0.05 (≈ 0.0587 µM) | 100 (≈ 117 µM) | > 100 | 0.2 (≈ 0.235 µM) | 4 (≈ 4.69 µM) | 0.1 (≈ 0.117 µM) | 0.02 (≈ 0.0235 µM) | 1.56 (≈ 1.83 µM) | 0.1 (≈ 0.117 µM) | > 100 | > 100 | 0.05 (≈ 0.0587 µM) | 0.1 (≈ 0.117 µM) | 0.1 (≈ 0.117 µM) | 0.1 (≈ 0.117 µM) | 0.1 (≈ 0.117 µM) | 0.1 (≈ 0.117 µM) | 0.25 (≈ 0.293 µM) | 0.5 (≈ 0.587 µM) | MIC [17]: 0.15 µg/mL (≈ 0.176 µM); MIC [18]: 0.015 µg/mL (≈ 0.0176 µM); MIC [19]: ≤ 0.005 µg/mL; MIC [20]: ≤ 0.005 µg/mL; MIC [21]: 6.2 µg/mL (≈ 7.28 µM); MIC [22]: 0.02 µg/mL (≈ 0.0235 µM); MIC [23]: 0.2 µg/mL (≈ 0.235 µM)
2 | CCOC(=O)c1cncc(-c2ccc(C#CCO[C@]3(C)C[C@@H](C)C(=O)[C@H](C)[C@H]4NC(=O)O[C@]4(C)[C@@H](CC)OC(=O)[C@H](C)C(=O)[C@H](C)[C@H]3O[C@@H]3O[C@H](C)C[C@H](N(C)C)[C@H]3O)s2)c1 [Example 10] | > 100 | 0.1 (≈ 0.115 µM) | > 100 | > 100 | 0.78 (≈ 0.899 µM) | 8 (≈ 9.22 µM) | 0.2 (≈ 0.23 µM) | 0.01 (≈ 0.0115 µM) | 1.56 (≈ 1.8 µM) | 0.1 (≈ 0.115 µM) | > 100 | > 100 | 0.1 (≈ 0.115 µM) | 0.1 (≈ 0.115 µM) | 0.05 (≈ 0.0576 µM) | 0.1 (≈ 0.115 µM) | 0.2 (≈ 0.23 µM) | 0.2 (≈ 0.23 µM) | 0.5 (≈ 0.576 µM) | 4 (≈ 4.61 µM) | MIC [17]: 0.03 µg/mL (≈ 0.0346 µM); MIC [18]: 0.03 µg/mL (≈ 0.0346 µM); MIC [19]: 0.01 µg/mL (≈ 0.0115 µM); MIC [20]: 0.005 µg/mL (≈ 0.00576 µM); MIC [21]: 50 µg/mL (≈ 57.6 µM); MIC [22]: 0.01 µg/mL (≈ 0.0115 µM); MIC [23]: 0.2 µg/mL (≈ 0.23 µM)
3 | CC[C@H]1OC(=O)[C@H](C)C(=O)[C@H](C)[C@@H](O[C@@H]2O[C@H](C)C[C@H](N(C)C)[C@H]2O)[C@](C)(OC/C=C/c2cnc(-c3cccnc3)s2)C[C@@H](C)C(=O)[C@H](C)[C@H]2NC(=O)O[C@@]21C [Example 55] | > 100 | 0.05 (≈ 0.0626 µM) | 50 (≈ 62.6 µM) | 50 (≈ 62.6 µM) | 0.39 (≈ 0.488 µM) | 4 (≈ 5.01 µM) | 0.2 (≈ 0.25 µM) | 0.02 (≈ 0.025 µM) | 0.39 (≈ 0.488 µM) | 0.02 (≈ 0.025 µM) | > 100 | > 100 | 0.05 (≈ 0.0626 µM) | 0.1 (≈ 0.125 µM) | 0.05 (≈ 0.0626 µM) | 0.05 (≈ 0.0626 µM) | 0.1 (≈ 0.125 µM) | 0.1 (≈ 0.125 µM) | 0.25 (≈ 0.313 µM) | 2 (≈ 2.5 µM) | MIC [17]: 0.03 µg/mL (≈ 0.0375 µM); MIC [18]: 0.03 µg/mL (≈ 0.0375 µM); MIC [19]: 0.05 µg/mL (≈ 0.0626 µM); MIC [20]: ≤ 0.005 µg/mL; MIC [21]: 25 µg/mL (≈ 31.3 µM); MIC [22]: 0.05 µg/mL (≈ 0.0626 µM); MIC [23]: 0.2 µg/mL (≈ 0.25 µM)
4 | CC[C@H]1OC(=O)[C@H](C)C(=O)[C@H](C)[C@@H](O[C@@H]2O[C@H](C)C[C@H](N(C)C)[C@H]2O)[C@](C)(OCC#Cc2ccc(-c3ccc(F)cc3)s2)C[C@@H](C)C(=O)[C@H](C)[C@H]2NC(=O)O[C@@]21C [Example 22] | > 100 | 0.78 (≈ 0.959 µM) | > 100 | > 100 | 25 (≈ 30.8 µM) | 64 (≈ 78.7 µM) | 3.1 (≈ 3.81 µM) | 0.39 (≈ 0.48 µM) | 1.56 (≈ 1.92 µM) | 0.78 (≈ 0.959 µM) | > 100 | > 100 | 3.1 (≈ 3.81 µM) | 3.1 (≈ 3.81 µM) | 3.1 (≈ 3.81 µM) | 3.1 (≈ 3.81 µM) | 3.1 (≈ 3.81 µM) | 3.1 (≈ 3.81 µM) | 4 (≈ 4.92 µM) | 4 (≈ 4.92 µM) | MIC [17]: 1 µg/mL (≈ 1.23 µM); MIC [18]: 1 µg/mL (≈ 1.23 µM); MIC [19]: 0.39 µg/mL (≈ 0.48 µM); MIC [20]: 0.39 µg/mL (≈ 0.48 µM); MIC [21]: > 100 µg/mL; MIC [22]: 0.39 µg/mL (≈ 0.48 µM); MIC [23]: 3.1 µg/mL (≈ 3.81 µM)
5 | CC[C@H]1OC(=O)[C@H](C)C(=O)[C@H](C)[C@@H](O[C@@H]2O[C@H](C)C[C@H](N(C)C)[C@H]2O)[C@](C)(OCC#Cc2ccc(-c3ccc(C=O)o3)cc2)C[C@@H](C)C(=O)[C@H](C)[C@H]2NC(=O)O[C@@]21C [Example 24] | > 100 | 0.2 (≈ 0.248 µM) | > 100 | > 100 | 1.56 (≈ 1.93 µM) | 8 (≈ 9.91 µM) | 0.39 (≈ 0.483 µM) | 0.02 (≈ 0.0248 µM) | 3.1 (≈ 3.84 µM) | 0.1 (≈ 0.124 µM) | > 100 | > 100 | 0.39 (≈ 0.483 µM) | 0.39 (≈ 0.483 µM) | 0.39 (≈ 0.483 µM) | 0.39 (≈ 0.483 µM) | 0.39 (≈ 0.483 µM) | 0.39 (≈ 0.483 µM) | 0.25 (≈ 0.31 µM) | 2 (≈ 2.48 µM) | MIC [17]: 0.03 µg/mL (≈ 0.0372 µM); MIC [18]: 0.03 µg/mL (≈ 0.0372 µM); MIC [19]: 0.1 µg/mL (≈ 0.124 µM); MIC [20]: 0.1 µg/mL (≈ 0.124 µM); MIC [21]: 25 µg/mL (≈ 31 µM); MIC [22]: 0.1 µg/mL (≈ 0.124 µM); MIC [23]: 0.78 µg/mL (≈ 0.967 µM)
